How the values were obtained:
[1] = target: T1, D(4) dopamine receptor (Homo sapiens, UniProt P21917); assay: In vitro binding affinity at human dopamine D4 receptor expressed in CHO cells by [3H]spiperone displacement.; assay type: cell-based
T1 sequence (P21917 whole entry): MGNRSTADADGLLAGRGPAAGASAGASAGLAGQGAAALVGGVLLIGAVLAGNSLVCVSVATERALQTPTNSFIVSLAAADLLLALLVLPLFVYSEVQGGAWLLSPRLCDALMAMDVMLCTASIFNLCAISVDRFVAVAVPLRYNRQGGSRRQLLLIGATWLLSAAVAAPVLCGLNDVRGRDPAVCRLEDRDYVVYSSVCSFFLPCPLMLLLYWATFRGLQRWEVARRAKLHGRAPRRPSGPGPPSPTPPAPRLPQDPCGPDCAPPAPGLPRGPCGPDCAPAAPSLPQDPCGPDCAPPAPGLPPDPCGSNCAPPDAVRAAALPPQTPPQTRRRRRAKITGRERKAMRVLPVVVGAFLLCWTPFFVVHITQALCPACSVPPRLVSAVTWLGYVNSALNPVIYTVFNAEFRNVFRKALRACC

[2] = target: D(2) dopamine receptor (Homo sapiens, UniProt P14416); assay: Displacement of [3H]spiperone from human Dopamine receptor D2 expressed in CHO cells; assay type: cell-based
Sequence of D(2) dopamine receptor (P14416 whole entry): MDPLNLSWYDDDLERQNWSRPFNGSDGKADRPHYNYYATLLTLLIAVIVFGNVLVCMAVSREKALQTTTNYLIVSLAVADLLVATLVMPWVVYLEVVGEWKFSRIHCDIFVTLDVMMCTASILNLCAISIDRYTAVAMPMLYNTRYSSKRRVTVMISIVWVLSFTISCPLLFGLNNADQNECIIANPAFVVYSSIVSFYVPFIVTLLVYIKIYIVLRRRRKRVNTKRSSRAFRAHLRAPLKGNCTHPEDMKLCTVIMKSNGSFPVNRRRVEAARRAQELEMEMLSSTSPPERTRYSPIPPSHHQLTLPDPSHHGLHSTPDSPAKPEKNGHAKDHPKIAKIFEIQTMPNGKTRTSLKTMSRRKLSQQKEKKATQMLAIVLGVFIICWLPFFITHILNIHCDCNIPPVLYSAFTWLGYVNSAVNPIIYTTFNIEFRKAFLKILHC

[3] = target: D(3) dopamine receptor (Homo sapiens, UniProt P35462); assay: Displacement of [3H]spiperone from human Dopamine receptor D3 expressed in CHO cells; assay type: cell-based
Sequence of D(3) dopamine receptor (P35462 whole entry): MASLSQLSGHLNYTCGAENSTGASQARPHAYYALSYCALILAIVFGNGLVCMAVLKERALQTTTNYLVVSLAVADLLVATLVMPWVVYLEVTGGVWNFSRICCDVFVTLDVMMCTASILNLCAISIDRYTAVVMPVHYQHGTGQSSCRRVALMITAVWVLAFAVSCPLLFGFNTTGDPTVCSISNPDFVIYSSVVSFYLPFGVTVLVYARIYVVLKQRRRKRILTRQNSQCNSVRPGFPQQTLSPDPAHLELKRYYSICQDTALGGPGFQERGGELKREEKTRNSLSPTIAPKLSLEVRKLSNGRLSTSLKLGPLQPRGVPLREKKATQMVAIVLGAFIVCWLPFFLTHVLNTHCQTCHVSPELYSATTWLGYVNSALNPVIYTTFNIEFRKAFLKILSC

[4] = target: T2, 5-hydroxytryptamine receptor 1A (Mus musculus, UniProt Q64264); assay: In vivo binding affinity was evaluated against 5-hydroxytryptamine 1A receptor; assay type: organism-based
T2 sequence (Q64264 whole entry): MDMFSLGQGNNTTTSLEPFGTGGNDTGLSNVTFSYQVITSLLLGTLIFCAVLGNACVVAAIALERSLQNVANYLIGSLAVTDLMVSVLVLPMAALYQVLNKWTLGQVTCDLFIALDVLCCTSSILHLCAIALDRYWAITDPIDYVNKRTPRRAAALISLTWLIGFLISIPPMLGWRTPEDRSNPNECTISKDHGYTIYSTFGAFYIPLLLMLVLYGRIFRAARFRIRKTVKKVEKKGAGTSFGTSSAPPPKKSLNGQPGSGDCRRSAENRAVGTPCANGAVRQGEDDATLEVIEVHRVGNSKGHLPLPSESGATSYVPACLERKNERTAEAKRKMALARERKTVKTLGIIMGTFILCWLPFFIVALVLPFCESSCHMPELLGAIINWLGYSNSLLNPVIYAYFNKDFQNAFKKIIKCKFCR

[5] = target: 5-hydroxytryptamine receptor 2A (Bos taurus, UniProt Q75Z89); assay: In vivo binding affinity was evaluated against 5-hydroxytryptamine 2 receptor; assay type: organism-based
Sequence of 5-hydroxytryptamine receptor 2A (Q75Z89 whole entry): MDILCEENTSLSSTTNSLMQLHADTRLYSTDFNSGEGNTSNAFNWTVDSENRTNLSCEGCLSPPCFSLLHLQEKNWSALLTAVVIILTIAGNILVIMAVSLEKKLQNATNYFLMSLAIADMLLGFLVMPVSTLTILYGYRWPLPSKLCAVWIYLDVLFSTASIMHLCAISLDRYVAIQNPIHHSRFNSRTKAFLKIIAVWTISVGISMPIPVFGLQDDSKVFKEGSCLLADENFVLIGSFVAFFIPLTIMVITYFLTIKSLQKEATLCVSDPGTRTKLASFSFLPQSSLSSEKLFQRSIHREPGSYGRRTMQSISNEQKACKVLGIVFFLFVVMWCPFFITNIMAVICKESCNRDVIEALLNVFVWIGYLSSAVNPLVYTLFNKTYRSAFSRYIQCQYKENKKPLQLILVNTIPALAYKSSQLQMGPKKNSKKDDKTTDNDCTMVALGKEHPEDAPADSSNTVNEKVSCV

[6] = system: Rattus norvegicus; assay: Reversal of amphetamine (at 0.5 mg/kg given intra peritoneal) stimulated locomotor activity at 3 mg/kg in rat.; assay type: functional

Row | Ki [1] [nM] | Ki [2] [nM] | Ki [3] [nM] | SMILES | further results
1 | – | > 5000 | > 3000 | Cc1ccc(N2CCN(CCC3NC(=O)c4ccccc43)CC2)cc1 (configuration not stated) | –
2 | – | > 5000 | > 3000 | O=C1NC(CCN2CCN(c3ccc(Cl)cc3)CC2)c2ccccc21 (configuration not stated) | –
3 | – | – | 2680 | O=C1NC(CCN2CCN(c3ccccc3)CC2)c2ccccc21 (configuration not stated) | –
4 | 333 | > 5000 | > 3000 | COc1ccc(N2CCN(CCC3c4ccccc4C(=O)N3C)CC2)cc1 (configuration not stated) | –
5 | 35.1 | > 5000 | > 3000 | Cc1ccc(N2CCN(CCC3c4ccccc4C(=O)N3C)CC2)cc1C (configuration not stated) | –
6 | 78.6 | > 5000 | > 3000 | CN1C(=O)c2ccccc2C1CCN1CCN(c2ccc(Cl)cc2)CC1 (configuration not stated) | –
7 | 10 | > 5000 | > 3000 | O=C1NC(CCN2CCN(c3ccc4ccccc4c3)CC2)c2ccccc21 (configuration not stated) | –
8 | 37.3 | > 5000 | > 3000 | COc1ccc(N2CCN(CCC3NC(=O)c4ccccc43)CC2)cc1 (configuration not stated) | –
9 | – | – | 2680 | Cc1ccc(N2CCN(CCC3NC(=O)c4ccccc43)CC2)cc1C (configuration not stated) | –

Further lines, the compound ahead of its results:

Row | SMILES | Ki [1] [nM] | Ki [2] [nM] | Ki [3] [nM] | further results
10 | O=C(CCN1CCN(c2ccc(CO)c(Cl)c2)CC1)c1ccc(Cl)cc1 | 60 | – | – | –
11 | Cc1ccc(N2CCN(CC[C@H]3NC(=O)c4ccccc43)CC2)cc1C | – | – | – | Ki [4]: 525 nM; Ki [5]: 36.4 nM; Activity [6]: 8%
12 | OCc1ccc(N2CCN(CCC(O)c3ccc(Cl)cc3)CC2)cc1Cl (configuration not stated) | 11 | – | – | –
13 | Cc1ccc(N2CCN(CC[C@@H]3NC(=O)c4ccccc43)CC2)cc1C | – | – | – | Ki [4]: 991 nM; Ki [5]: 14.6 nM; Activity [6]: 70%
14 | Cc1ccc(C2CCN(CCC3NC(=O)c4ccccc43)CC2)cc1C (configuration not stated) | – | – | > 3000 | –
15 | Cc1ccnc(N2CCN(CCC3NC(=O)c4ccccc43)CC2)c1 (configuration not stated) | 22.6 | > 5000 | > 3000 | –
16 | OCc1ccc(N2CCN(CC[C@H](O)c3ccc(Cl)cc3)CC2)cc1Cl | 8.6 | – | – | –
17 | OCc1ccc(N2CCN(CC[C@@H](O)c3ccc(Cl)cc3)CC2)cc1Cl | 81.4 | – | – | –
18 | Cc1nc(N2CCN(CCC3NC(=O)c4ccccc43)CC2)sc1C (configuration not stated) | – | > 5000 | > 3000 | –
